Measured values as given in publication PMC10882719 (Frontiers in Neuroscience, 2024).
Read-outs that look alike come from different tables or passages of the source.

What was measured:
Assay type in all cases: cell-based
[1] = biological target: T1, 168 GPCRs (Homo sapiens, UniProt O00574)
T1 construct: host or cells: PathHunter cell lines
Procedure: (§1) Studies were performed at Eurofins DiscoverX Corporation (Fremont, CA) using the GPCRmax assay according to the manufacturer’s protocols. […] Activity greater than 30% typically indicates agonist activity and inhibition greater than 50% indicates antagonist activity. This assay uses enzyme fragment complementation with […] as the functional reporter. When a GPCR is activated, […] is recruited and the reporter is detectable. GPCRmax offers a high-throughput screen of 168 GPCRs for agonist or antagonist activity. Briefly, PathHunter cell lines were propagated, seeded into 384-well microplates and incubated at 37°C. […] Microplates were read following signal generation with a PerkinElmer Envision™ instrument for chemiluminescent signal detection. Compound activity was analyzed using CBIS data analysis suite (ChemInnovation, CA) to determine raw values (RLU). For agonist mode assay, percentage activity was calculated using the following formula: % Activity =100% × (mean RLU of test sample - mean RLU of vehicle control) / (mean MAX control ligand - mean RLU of vehicle control). For antagonist mode assay, percentage inhibition was calculated using the following formula: % Inhibition =100% × (1 - (mean RLU of test sample - mean RLU of vehicle control) / (mean RLU of EC80 control - mean RLU of vehicle control)).

[2] = biological target: T2, 168 GPCRs (Homo sapiens, UniProt P35368); settings: ADRA1B
T2 construct: host or cells: PathHunter cell lines
T2 sequence (P35368 1-520): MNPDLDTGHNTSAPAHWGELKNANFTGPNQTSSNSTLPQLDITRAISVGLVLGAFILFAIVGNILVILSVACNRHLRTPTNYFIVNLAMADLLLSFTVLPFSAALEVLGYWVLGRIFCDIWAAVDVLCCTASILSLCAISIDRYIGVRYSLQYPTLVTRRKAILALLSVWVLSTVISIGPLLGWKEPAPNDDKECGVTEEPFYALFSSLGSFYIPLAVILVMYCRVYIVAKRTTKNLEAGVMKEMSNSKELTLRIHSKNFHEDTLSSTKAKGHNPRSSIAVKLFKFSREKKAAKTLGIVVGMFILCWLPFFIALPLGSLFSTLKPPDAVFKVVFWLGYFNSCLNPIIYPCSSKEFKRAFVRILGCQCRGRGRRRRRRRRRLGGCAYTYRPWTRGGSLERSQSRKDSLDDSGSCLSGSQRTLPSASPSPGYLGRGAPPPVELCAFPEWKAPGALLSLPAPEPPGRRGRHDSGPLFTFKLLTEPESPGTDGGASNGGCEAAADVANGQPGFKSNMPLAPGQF
Procedure: as §1

[3] = biological target: T3, 168 GPCRs (Homo sapiens, UniProt P25106)
T3 construct: host or cells: PathHunter cell lines
T3 sequence (P25106 whole entry): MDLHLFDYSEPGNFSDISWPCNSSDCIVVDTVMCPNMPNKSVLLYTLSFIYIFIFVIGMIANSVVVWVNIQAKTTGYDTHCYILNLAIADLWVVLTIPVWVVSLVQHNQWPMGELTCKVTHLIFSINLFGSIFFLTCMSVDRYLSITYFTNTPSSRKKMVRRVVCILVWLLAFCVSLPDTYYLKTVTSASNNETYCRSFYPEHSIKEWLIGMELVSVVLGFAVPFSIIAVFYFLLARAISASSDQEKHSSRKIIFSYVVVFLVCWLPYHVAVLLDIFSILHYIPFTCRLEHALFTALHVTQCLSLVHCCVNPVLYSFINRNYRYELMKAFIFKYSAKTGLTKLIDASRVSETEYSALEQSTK
Procedure: as §1

[4] = biological target: T4, 168 GPCRs (Homo sapiens, UniProt P32245); settings: MC4R
T4 construct: host or cells: PathHunter cell lines
T4 sequence (P32245 whole entry): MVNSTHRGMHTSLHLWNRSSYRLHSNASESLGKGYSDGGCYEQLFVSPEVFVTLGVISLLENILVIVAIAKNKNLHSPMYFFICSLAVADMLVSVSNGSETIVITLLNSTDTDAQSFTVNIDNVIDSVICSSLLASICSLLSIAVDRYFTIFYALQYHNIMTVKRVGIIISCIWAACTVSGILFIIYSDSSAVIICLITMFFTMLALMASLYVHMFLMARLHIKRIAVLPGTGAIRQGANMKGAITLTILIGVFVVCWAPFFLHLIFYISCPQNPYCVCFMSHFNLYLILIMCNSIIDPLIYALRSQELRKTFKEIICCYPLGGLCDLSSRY
Procedure: as §1

[5] = biological target: T5, 168 GPCRs (Homo sapiens, UniProt P35408); settings: PTGER4
T5 construct: host or cells: PathHunter cell lines
T5 sequence (P35408 whole entry): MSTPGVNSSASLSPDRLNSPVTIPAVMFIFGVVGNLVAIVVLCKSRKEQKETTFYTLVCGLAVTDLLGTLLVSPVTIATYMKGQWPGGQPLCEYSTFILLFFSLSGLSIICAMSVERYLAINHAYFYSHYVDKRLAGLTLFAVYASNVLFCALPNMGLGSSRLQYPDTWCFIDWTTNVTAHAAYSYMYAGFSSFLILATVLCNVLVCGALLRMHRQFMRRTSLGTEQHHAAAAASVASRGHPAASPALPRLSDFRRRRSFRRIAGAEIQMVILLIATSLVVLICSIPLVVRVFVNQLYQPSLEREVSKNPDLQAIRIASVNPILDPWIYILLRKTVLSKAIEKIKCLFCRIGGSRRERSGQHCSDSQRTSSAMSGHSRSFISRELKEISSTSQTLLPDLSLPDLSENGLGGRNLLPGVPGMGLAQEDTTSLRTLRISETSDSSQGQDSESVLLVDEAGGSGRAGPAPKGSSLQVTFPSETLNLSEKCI
Procedure: as §1

[6] = biological target: T6, 168 GPCRs (Homo sapiens, UniProt O95838); settings: GLP2R
T6 construct: host or cells: PathHunter cell lines
T6 sequence (O95838 1-553): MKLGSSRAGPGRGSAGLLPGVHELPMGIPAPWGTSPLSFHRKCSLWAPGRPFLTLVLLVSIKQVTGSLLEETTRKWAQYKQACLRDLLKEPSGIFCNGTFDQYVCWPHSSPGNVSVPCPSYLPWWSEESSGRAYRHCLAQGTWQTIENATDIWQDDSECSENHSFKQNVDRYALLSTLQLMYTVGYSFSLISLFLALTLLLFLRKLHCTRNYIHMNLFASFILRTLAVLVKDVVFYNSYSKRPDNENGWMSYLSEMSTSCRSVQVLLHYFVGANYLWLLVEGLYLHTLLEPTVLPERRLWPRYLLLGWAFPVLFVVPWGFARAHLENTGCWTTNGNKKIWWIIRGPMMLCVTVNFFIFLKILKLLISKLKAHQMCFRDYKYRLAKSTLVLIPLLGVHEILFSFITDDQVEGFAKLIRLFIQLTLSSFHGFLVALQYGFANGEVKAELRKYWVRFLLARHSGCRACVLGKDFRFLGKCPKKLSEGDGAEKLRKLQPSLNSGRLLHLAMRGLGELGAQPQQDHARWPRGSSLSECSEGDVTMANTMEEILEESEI
Procedure: as §1

[7] = biological target: T7, 168 GPCRs (Homo sapiens, UniProt P32246)
T7 construct: host or cells: PathHunter cell lines
T7 sequence (P32246 1-355): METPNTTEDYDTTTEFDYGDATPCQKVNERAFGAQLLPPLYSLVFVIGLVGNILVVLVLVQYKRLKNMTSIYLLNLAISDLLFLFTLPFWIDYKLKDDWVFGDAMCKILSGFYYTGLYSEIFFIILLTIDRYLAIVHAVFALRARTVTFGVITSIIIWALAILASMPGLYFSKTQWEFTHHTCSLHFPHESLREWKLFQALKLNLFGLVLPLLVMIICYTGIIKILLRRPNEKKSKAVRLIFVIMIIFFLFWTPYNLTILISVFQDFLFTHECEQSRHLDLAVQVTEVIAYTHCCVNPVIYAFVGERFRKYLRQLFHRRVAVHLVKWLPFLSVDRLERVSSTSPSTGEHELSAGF
Procedure: as §1

T1 sequence (O00574 whole entry): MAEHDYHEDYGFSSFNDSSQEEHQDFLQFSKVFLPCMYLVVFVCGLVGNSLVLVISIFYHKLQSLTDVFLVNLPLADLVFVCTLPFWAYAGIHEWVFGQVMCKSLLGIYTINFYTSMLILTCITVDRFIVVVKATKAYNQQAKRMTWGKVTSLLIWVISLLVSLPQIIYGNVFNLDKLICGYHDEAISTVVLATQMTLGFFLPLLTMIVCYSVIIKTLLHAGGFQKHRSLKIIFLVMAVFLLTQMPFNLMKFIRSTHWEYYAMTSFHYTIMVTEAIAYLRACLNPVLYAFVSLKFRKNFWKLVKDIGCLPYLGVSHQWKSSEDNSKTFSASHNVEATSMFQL

Structure (SMILES)	% Agonist Activity ([1]; CXCR6, 1 uM) [%]	% Antagonist Activity ([1]; CXCR6, 1 uM) [%]	% Agonist Activity ([1]; CXCR6, 10 uM) [%]	% Antagonist Activity ([1]; CXCR6, 10 uM) [%]	% Agonist Activity ([2]; 1 uM) [%]	% Antagonist Activity ([2]; 1 uM) [%]	% Agonist Activity ([2]; 10 uM) [%]	% Antagonist Activity ([2]; 10 uM) [%]	% Agonist Activity ([3]; CXCR7, 1 uM) [%]	% Antagonist Activity ([3]; CXCR7, 1 uM) [%]	% Agonist Activity ([3]; CXCR7, 10 uM) [%]	% Antagonist Activity ([3]; CXCR7, 10 uM) [%]	% Agonist Activity ([4]; 1 uM) [%]	% Antagonist Activity ([4]; 1 uM) [%]	% Agonist Activity ([4]; 10 uM) [%]	% Antagonist Activity ([4]; 10 uM) [%]	% Agonist Activity ([5]; Conc 1 uM) [%]	% Antagonist Activity ([5]; Conc 1 uM) [%]	% Agonist Activity ([5]; Conc 10 uM) [%]	% Antagonist Activity ([5]; Conc 10 uM) [%]	other results
CNC(C)Cc1ccc2c(c1)OCO2 (centres unmarked) [MDMA, 3,4-Methylenedioxy methamphetamine, reference compound]	14.7	20.9	3.8	5.2	-1.6	18.7	-1.6	35.1	-1.3	5.3	0.5	8	2.3	-14.5	0.7	-11.7	11.1	7.2	7.8	11.7	% Agonist Activity ([6]; 1 uM): 0%; % Antagonist Activity ([6]; 1 uM): 3.4%; % Agonist Activity ([6]; 10 uM): -5%; % Antagonist Activity ([6]; 10 uM): 1.1%; % Agonist Activity ([7]; CCR1, 1 uM): 13.6%; % Antagonist Activity ([7]; CCR1, 1 uM): -13%; % Agonist Activity ([7]; CCR1, 10 uM): 6.2%; % Antagonist Activity ([7]; CCR1, 10 uM): -7.6%
CNC(C)C(=O)c1ccc2c(c1)OCO2 (centres unmarked) [methylone]	0.3	27.2	0.3	12.6	-3.3	17.9	-2.9	20.6	-1.3	14.1	-0.8	7.3	-1.4	-5.2	-1.1	-14	-2.8	10.1	-1.4	4.3	% Agonist Activity ([6]; 1 uM): -1.5%; % Antagonist Activity ([6]; 1 uM): 5.4%; % Agonist Activity ([6]; 10 uM): -1%; % Antagonist Activity ([6]; 10 uM): 5.4%; % Agonist Activity ([7]; CCR1, 1 uM): -2.6%; % Antagonist Activity ([7]; CCR1, 1 uM): -8.1%; % Agonist Activity ([7]; CCR1, 10 uM): 3.6%; % Antagonist Activity ([7]; CCR1, 10 uM): -16.6%
